This passage reports Ki results from patent US7109354B2, “Thiophene amidines, compositions thereof, and methods of treating complement-mediated diseases and conditions” (3-Dimensional Pharmaceuticals, Inc., priority 2002, dated 2006).

pKi: −log10 of the molar value. Where “and” joins values, the source holds several entries; their conditions need not be identical. Equal values may be shown once.

For this experiment, the target named is T1, Activated human C1s (Homo sapiens, UniProt P09871).
T1 construct: purchased Calbiochem (La Jolla, Calif.)
T1 sequence (P09871 438-688 limits assumed): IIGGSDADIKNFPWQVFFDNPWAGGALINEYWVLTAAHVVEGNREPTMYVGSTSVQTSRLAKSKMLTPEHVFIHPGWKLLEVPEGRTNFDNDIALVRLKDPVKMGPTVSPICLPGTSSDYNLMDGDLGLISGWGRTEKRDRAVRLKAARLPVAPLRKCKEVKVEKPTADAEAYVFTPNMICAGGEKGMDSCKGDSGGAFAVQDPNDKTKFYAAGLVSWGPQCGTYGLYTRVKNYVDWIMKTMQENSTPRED
T1 sequence (P09871 16-437 partner limits assumed): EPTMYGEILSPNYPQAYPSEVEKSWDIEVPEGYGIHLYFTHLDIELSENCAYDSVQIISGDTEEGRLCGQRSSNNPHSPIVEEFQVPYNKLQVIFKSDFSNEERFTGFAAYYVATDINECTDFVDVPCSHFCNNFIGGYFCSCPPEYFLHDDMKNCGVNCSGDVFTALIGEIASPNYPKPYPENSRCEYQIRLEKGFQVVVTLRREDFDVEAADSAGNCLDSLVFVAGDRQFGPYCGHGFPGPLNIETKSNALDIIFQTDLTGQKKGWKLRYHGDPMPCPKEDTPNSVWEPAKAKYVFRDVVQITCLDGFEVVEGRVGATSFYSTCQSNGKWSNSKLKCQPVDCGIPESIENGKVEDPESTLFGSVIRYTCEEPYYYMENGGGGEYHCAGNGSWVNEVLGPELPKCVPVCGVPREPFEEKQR
The experiment can be described thus: In vitro inhibition of C1s (Ki determination, C1s-catalyzed hydrolysis of Z-Gly-Arg-S-Bzl, DTNB readout). In kind it is biochemical. Particulars: substrate Z-Gly-Arg-S-Bzl 45 μM, DTNB 200 μM, C1s 2.3 nM, pH 7.5, 37° C., absorbance at 405 nm. The procedure:
Reagents: All buffer salts were obtained from Sigma Chemical Company (St. Louis, Mo.), and were of the highest purity available. DTNB was purchased from Pierce (Rockford, Ill.). Z-Gly-Arg-S-Bzl was purchased from Enzyme Systems Products (Livermore, Calif.). Activated human C1s was purchased from Calbiochem (La Jolla, Calif.).
Test compounds are prepared as a 10 μM solution in DMSO. Dilutions are prepared in DMSO yielding 7 final concentrations encompassing a 700-fold concentration range.
Reactions were initiated by the addition of a 10 μL aliquot of the enzyme, and the absorbance increase at 405 nm is continuously recorded for 15 minutes in a Molecular Devices plate reader. Final DMSO concentration was 4.3%. […] The ratio of the velocity (rate of change in absorbance as a function of time) for a sample containing no test compound is divided by the velocity of a sample containing test compound, and is plotted as a function of test compound concentration. The data are fit to a linear regression, and the value of the slope of the line calculated. The inverse of the slope is the experimentally determined Ki value.
What is called pKi is −log10 of the Ki, conventionally taken in molar units. Read a low pKi as a high Ki. Take `CSc1sc(C(=N)N)cc1S(=O)(=O)c1ccc2ccccc2c1` [Example 37, 5-Methylsulfanyl-4-(naphthalene-2-sulfonyl)-thiophene-2-carboxamidine triflouroacetate]: the pKi was 7.64 to 8.22.
Molecule `COc1ccc(-c2cccc(S(=O)(=O)c3cc(C(=N)N)sc3SC)c2)c(OC)c1` [Example 41, 4-(2′,4′-Dimethoxy-biphenyl-3-sulfonyl)-5-methylsulfanyl-thiophene-2-carboxamidine] showed a pKi of 7.64 to 8.22.
Molecule `COc1ccc(-c2cccc(S(=O)(=O)c3cc(C(=N)N)sc3SC)c2)cc1` [Example 42, 4-(4′-Methoxy-biphenyl-3-sulfonyl)-5-methylsulfanyl-thiophene-2-carboxamidine] gave a pKi of 7.64 to 8.22.
Molecule `COc1ccc(-c2cccc(S(=O)(=O)c3cc(C(=N)N)sc3SC)c2)cc1OC` [Example 43, 4-(3′,4′-Dimethoxy-biphenyl-3-sulfonyl)-5-methylsulfanyl-thiophene-2-carboxamidine] showed a pKi of 7.64 to 8.22.
Take `COc1cccc(-c2cccc(S(=O)(=O)c3cc(C(=N)N)sc3SC)c2)c1` [Example 44, 4-(3′-Methoxy-biphenyl-3-sulfonyl)-5-methylsulfanyl-thiophene-2-carboxamidine]: the pKi is 7.64 to 8.22.
Turning to `COc1ccccc1-c1cccc(S(=O)(=O)c2cc(C(=N)N)sc2SC)c1` [Example 45, 4-(2′-Methoxy-biphenyl-3-sulfonyl)-5-methylsulfanyl-thiophene-2-carboxamidine], the pKi was 7.64 to 8.22.
Then `CSc1sc(C(=N)N)cc1S(=O)(=O)c1cccc(-c2cc(Cl)cc(Cl)c2)c1` [Example 46, 4-(3′,5′-Dichloro-biphenyl-3-sulfonyl)-5-methylsulfanyl-thiophene-2-carboxamidine], with 7.64 to 8.22; and `CSc1sc(C(=N)N)cc1S(=O)(=O)c1cccc(-c2cc(Cl)ccc2Cl)c1` [Example 47, 4-(2′,5′-Dichloro-biphenyl-3-sulfonyl)-5-methylsulfanyl-thiophene-2-carboxamidine], with 7.64 to 8.22.
Consider `CSc1sc(C(=N)N)cc1S(=O)(=O)c1cccc(-c2cc(C(F)(F)F)cc(C(F)(F)F)c2)c1` [Example 48, 4-(3′,5′-Bis-trifluoromethyl-biphenyl-3-sulfonyl)-5-methylsulfanyl-thiophene-2-carboxamidine], for which the pKi was 7.64 to 8.22.
As to `CSc1sc(C(=N)N)cc1S(=O)(=O)c1cccc(-c2cc3ccccc3o2)c1` [Example 49, 4-(3-Benzofuran-2-yl-benzenesulfonyl)-5-methylsulfanyl-thiophene-2-carboxamidine], the pKi is 7.64 to 8.22.
For the molecule `CSc1sc(C(=N)N)cc1S(=O)(=O)c1cccc(-c2cc3ccccc3s2)c1` [Example 50, 4-(3-Benzo[b]thiophen-2-yl-benzenesulfonyl)-5-methylsulfanyl-thiophene-2-carboxamidine], the pKi was 7.64 to 8.22.
Consider `CSc1sc(C(=N)N)cc1S(=O)(=O)c1cccc(-c2ccc(C)c([N+](=O)[O-])c2)c1` [Example 51, 4-(4′-Methyl-3′-nitro-biphenyl-3-sulfonyl)-5-methylsulfanyl-thiophene-2-carboxamidine], for which the pKi was 7.64 to 8.22.
Molecule `CSc1sc(C(=N)N)cc1S(=O)(=O)c1cccc(-c2ccc(C)cc2)c1` [Example 52, 4-(4′-Methyl-biphenyl-3-sulfonyl)-5-methylsulfanyl-thiophene-2-carboxamidine] gave a pKi of 7.64 to 8.22.
Consider `CSc1sc(C(=N)N)cc1S(=O)(=O)c1cccc(-c2ccc(Cl)cc2)c1` [Example 53, 4-(4′-Chloro-biphenyl-3-sulfonyl)-5-methylsulfanyl-thiophene-2-carboxamidine], for which the pKi is 7.64 to 8.22.
For `CSc1sc(C(=N)N)cc1S(=O)(=O)c1cccc(-c2ccc(C(F)(F)F)cc2)c1` [Example 54, 5-Methylsulfanyl-4-(4′-trifluoromethyl-biphenyl-3-sulfonyl)-thiophene-2-carboxamidine], the pKi was 7.64 to 8.22.
`CSc1sc(C(=N)N)cc1S(=O)(=O)c1cccc(-c2ccc(OC(F)(F)F)cc2)c1` [Example 55, 5-Methylsulfanyl-4-(4′-trifluoromethoxy-biphenyl-3-sulfonyl)-thiophene-2-carboxamidine] had a pKi of 7.64 to 8.22.
Molecule `CSc1sc(C(=N)N)cc1S(=O)(=O)c1cccc(-c2ccc(Oc3ccccc3)cc2)c1` [Example 56, 5-Methylsulfanyl-4-(4′-phenoxy-biphenyl-3-sulfonyl)-thiophene-2-carboxamidine] had a pKi of 7.64 to 8.22.
Then `CSc1sc(C(=N)N)cc1S(=O)(=O)c1cccc(-c2ccc3c(c2)OCO3)c1` [Example 58, 4-(3-Benzo[1,3]dioxol-5-yl-benzenesulfonyl)-5-methylsulfanyl-thiophene-2-carboxamidine], with 7.64 to 8.22.
Molecule `CSc1sc(C(=N)N)cc1S(=O)(=O)c1cccc(-c2ccc3cccnc3c2)c1` [Example 59, 5-Methylsulfanyl-4-(3-quinolin-7-yl-benzenesulfonyl)-thiophene-2-carboxamidine] showed a negative-log Ki (pKi) of 7.64 to 8.22.
As for `CSc1sc(C(=N)N)cc1S(=O)(=O)c1cccc(-c2cccc(C)c2)c1` [Example 60, 4-(3′-methyl-biphenyl-3-sulfonyl)-5-methylsulfanyl-thiophene-2-carboxamidine], the pKi was 7.64 to 8.22.
As to `CSc1sc(C(=N)N)cc1S(=O)(=O)c1cccc(-c2cccc(C=O)c2)c1` [Example 61, 4-(3′-Formyl-biphenyl-3-sulfonyl)-5-methylsulfanyl-thiophene-2-carboxamidine], the pKi was 7.64 to 8.22 and 8.22.
With `CSc1sc(C(=N)N)cc1S(=O)(=O)c1cccc(-c2cccc(N)c2)c1` [Example 62, 4-(3′-Amino-biphenyl-3-sulfonyl)-5-methylsulfanyl-thiophene-2-carboxamidine] the figure was 7.64 to 8.22.
`CSc1sc(C(=N)N)cc1S(=O)(=O)c1cccc(-c2cccc(C(F)(F)F)c2)c1` [Example 63, 5-Methylsulfanyl-4-(3′-trifluoromethyl-biphenyl-3-sulfonyl)-thiophene-2-carboxamidine] showed a negative logarithm of the Ki (pKi) of 7.64 to 8.22.
With `CSc1sc(C(=N)N)cc1S(=O)(=O)c1cccc(-c2cccc(CO)c2)c1` [Example 64, 4-(3′-Hydroxymethyl-biphenyl-3-sulfonyl)-5-methylsulfanyl-thiophene-2-carboxamidine] the figure was 7.64 to 8.22.
Turning to `CSc1sc(C(=N)N)cc1S(=O)(=O)c1cccc(-c2cccc(-c3ccccc3)c2)c1` [Example 65, 5-Methylsulfanyl-4-([1,1′;3′,1″]terphenyl-3-sulfonyl)-thiopbene-2-carboxamidine], the pKi is 7.64 to 8.22.
Then `CSc1sc(C(=N)N)cc1S(=O)(=O)c1cccc(-c2cccc3c2oc2ccccc23)c1` [Example 66, 4-(3-Dibenzofuran-4-yl-benzenesulfonyl)-5-methylsulfanyl-thiophene-2-carboxamidine], with 7.64 to 8.22; and `CSc1sc(C(=N)N)cc1S(=O)(=O)c1cccc(-c2ccccc2C(F)(F)F)c1` [Example 67, 5-Methylsulfanyl-4-(2′-trifluoromethyl-biphenyl-3-sulfonyl)-thiophene-2-carboxamidine], with 7.64 to 8.22.
With `CSc1sc(C(=N)N)cc1S(=O)(=O)c1cccc(-c2ccccc2CO)c1` [Example 68, 4-(2′-Hydroxymethyl-biphenyl-3-sulfonyl)-5-methylsulfanyl-thiophene-2-carboxamidine] the figure was 7.64 to 8.22.
In the case of `CSc1sc(C(=N)N)cc1S(=O)(=O)c1cccc(-c2ccccc2Cl)c1` [Example 69, 4-(2′-Chloro-biphenyl-3-sulfonyl)-5-methylsulfanyl-thiophene-2-carboxamidine], the pKi is 7.64 to 8.22.
In turn, `CSc1sc(C(=N)N)cc1S(=O)(=O)c1cccc(-c2cccnc2)c1` [Example 70, 5-Methylsulfanyt-4-(3-pyridin-3-yl-benzenesulfonyl)-thiophene-2-carboxamidine] had a pKi of 7.64 to 8.22.
Molecule `CSc1sc(C(=N)N)cc1S(=O)(=O)c1cccc(-c2cncnc2)c1` [Example 71, 5-Methylsulfanyl-4-(3-pyrimidin-5-yl-benzenesulfonyl)-thiophene-2-carboxamidine] gave a pKi of 7.64 to 8.22.
Regarding `CSc1sc(C(=N)N)cc1S(=O)(=O)c1cccc(-c2ccoc2)c1` [Example 72, 4-(3-Furan-3-yl-benzenesulfonyl)-5-methylsulfanyl-thiophene-2-carboxamidine], the negative-log Ki (pKi) is 7.64 to 8.22.
